Here are results for 4 molecules from patent publication US6339151B1, “Enzyme catalyzed therapeutic agents” (NewBiotics, Inc., priority 1998, dated 2002).

The subject of assay [1] is Colon Epithelium (CCD18co). The assay is described as follows: Alamar Blue Assay. The format is cell-based. The note with it: Homo sapiens, CCD-18Co. A general note: Resazurin is reduced to fluorescent resorufin, in cell work by metabolically active cells.
A further assay relates to Lung Epithelium (W138). The assay is described as follows: Alamar Blue Assay. The format is cell-based.
In another assay the test system is Normal Cells. The assay is described as follows: Alamar Blue Assay, mean over normal cells. The format is cell-based. The note with it: mean of the three normal cell types; read-out: mean IC50 (X̄).
Another assay has as its system Tumor Cells. The assay is described as follows: Alamar Blue Assay, mean over tumor cells. Conditions: mean of the three tumor cell lines; read-out: mean IC50 (X̄). Type of assay: cell-based.
Another assay has as its system Sarcoma (Saos 2). Kind of assay: Alamar Blue Assay. Type of assay: cell-based. The note with it: Homo sapiens.
The subject of the next assay is Skin Fibroblast (DET551). Kind of assay: Alamar Blue Assay. The format is cell-based.
The subject of another assay is Breast (MDA 468). Kind of assay: Alamar Blue Assay. Type of assay: cell-based.
For a further assay, the system named is Breast (MCF7). The assay is described as follows: Alamar Blue Assay. Type of assay: cell-based. Conditions: Homo sapiens.
The test system of assay [2] is CCD18co (normal colon epithelium). Kind of assay: Crystal violet cell proliferation assay. Type of assay: cell-based, human. Conditions: for IC50: Homo sapiens, CCD-18Co. The procedure: (§1) Two cell lines, H630R10 (Copur, et al. (1995)) and normal colon epithelial cells, CCD18co (ATCC) were used in these assays. The H630P (Copur et al. (1995)) cell line was selected for resistance to 10 μM 5-FU to give rise to H630R10. The characterization of these cell lines which expresses an elevated level of the TS enzyme. A normal colon epithelial cell type CCD18co (available from the ATCC) was used for comparison with H630R10 for sensitivity to test compounds.
(§2) The ability of the test compounds to block proliferation of cells was determined by the crystal violet procedure (Sugarman et al. (1985) and Antelman et al. (1995)).
(§3) Compounds were dissolved in dimethyl sulfoxide to a concentration of 1M. They were further diluted as necessary into DMEM cell culture medium, and subsequently into the first wells of the 96 Well microtiter plate. Each concentration was tested in triplicate on the target cell line. Compound concentrations from 1 μM to 3000 μM were tested. Cells were incubated with compound for 72 hours, the plates were washed, and the cells fixed with methanol and stained with crystal violet as described in Sugarman et al. ([…]) and Antelman, et al. (1995).

Assay [3] deals with H630R10 (colon cancer cell line). The assay is described as follows: Crystal violet cell proliferation assay. The note with it: for IC50: Homo sapiens. Type of assay: cell-based, human. How it is done:
as §1, §2, §3

Assay [4] concerns Metastatic Carcinoma (UT) breast cells. The note with it: 4 samples; cited from earlier work.
For assay [5], the system named is Primary Carcinoma (UT) breast cells. Conditions: 19 samples; cited from earlier work.
Assay [6] relates to Metastatic Carcinoma (Rx) breast cells. Conditions: 10 samples; cited from earlier work.
Where [7] appears, read: Table 6, H630R10, 72 hours, standard error less than 20%.

For the molecule `O=c1[nH]cc(F)c(=O)[nH]1` [5-Fluorouracil, 5-fluorouracil], the IC50 in assay [1] was determined as 0.2 µM; with Lung Epithelium (W138), 0.4 µM; with Normal Cells, 0.57 µM; with Tumor Cells, 4.1 µM; in the assay with Sarcoma (Saos 2) it was 11.3 µM; in the assay on Skin Fibroblast (DET551) it was 1.1 µM. Moreover, the IC50 is 0.4 µM in the assay with Breast (MDA 468) and 0.61 µM in the assay with Breast (MCF7).

Consider `O=c1[nH]c(=O)n([C@H]2C[C@H](O)[C@@H](CO)O2)cc1/C=C/Br` [BVDU, (E)-5-(2-bromovinyl)-2′-deoxyuridine], for which the IC50 was 2540 ± 58.2 µM in assay [2] (Table 6, CCD18co, 72 hours, standard error less than 20%) and 2880 ± 54.5 µM in assay [3] (setting [7]). The “activity in the proliferation assay” value in assay [3] (CCD18co and H630R10, Table 6 line 2) is given as “little activity”. Also, the “difference in sensitivity of the two cell lines” value in assay [3] (CCD18co vs H630R10) is on record as “no significant difference”.

For the molecule `O=c1[nH]c(=O)n([C@H]2C[C@H](O)[C@@H](CO)O2)cc1F` [Compound 5-FUdR, 5-fluoro-2′-deoxyuridine], the half-inhibitory concentration (IC50) in assay [2] (Table 7, CCD18co (normal colon epithelium), representative data from several assays, triplicate wells) is 9.5 µM; in assay [3] (setting [7]), 170 ± 2.4 µM; in assay [3] (Table 7, H630R10 (colon cancer cell line), representative data from several assays, triplicate wells), 170 µM. The “fold more sensitive CCD18co than H630-R10” value in assay [2] (normal colon epithelial CCD18co vs H630-R10 colon tumor cells) is given as “approximately 18 fold”.

Regarding `COc1cccc2c1C(=O)c1c(O)c3c(c(O)c1C2=O)C[C@@](O)(C(=O)CO)C[C@@H]3O[C@H]1C[C@H](N)[C@H](O)[C@H](C)O1` [Doxorubicin, doxorubicin], the “Average IC50” value in assay [4] is 0.036 ± 0.0263 µg/mL; in assay [5], 0.0114 ± 0.0068 µg/mL; in assay [6] it was 0.0198 ± 0.0127 µg/mL.

For orientation: IC50 means the concentration at which inhibition is half-maximal.
